“Also recorded” adds a separate entry of the source. Like-named read-outs stand apart in the source and are kept apart here.
Test system: LPS-induced GTPase activity in membranes isolated from RAW 264.7 cells
Assay: GTPase assay: effect of compounds on LPS-stimulated GTPase activity in macrophage membranes (release of 32Pi from γ-32P-GTP)
Assay type: biochemical
Settings: for stimulation of LPS-enhanced GTPase activity: at 100 µM; for relative abilities of purines to stimulate LPS-enhanced GTPase: dose-response studies, rank order; for sensitivity of LPS-stimulated GTPase activity to inhibitor: high concentrations of inhibitor, 0.1 mM ATP and 0.2 mM AMPPNP
Excerpt: We sought to directly evaluate the influence of LPS on possible G-protein function by examining agonist-enhanced GTPase activity, which is a hallmark of G-protein action. Moreover, because macrophages are one of the key cell types in the release of toxic mediators following an LPS challenge, we first assessed the capacity of LPS to influence GTPase activity in membranes isolated from RAW 264.7 cells, which is a highly LPS-responsive macrophage cell line. In these studies, GTPase activity was measured using a standard assay. The activity was determined using 2 µM γ-^32P-GTP in the presence of 0.1 mM ATP and 0.2 mM of the non-hydrolyzable ATP analog, AMPPNP, in order to minimize nonspecific nucleotidase activity in the membrane preparations.
The reaction is initiated by the addition of the γ-^32P-GTP and the mixture incubated at 30-37°C for 15 to 30 minutes. The reaction is terminated by the addition of 500µl of 5% trichloroacetic acid and 500µl of 0.1gm/ml acid-activated charcoal in 5% trichloroacetic acid. The samples are centrifuged at 14,000xg for 10 minutes, and a 550µl aliquot of the supernatant is removed for scintillation counting. The supernatant will contain the released ^32Pi. The extent of GTPase inhibition is measured by the decrease in the amount of ^32Pi released from γ-^32P-GTP. Appropriate controls include mixtures with one of the following omitted: (i) test compound, (ii) endotoxin, and (iii) ATP, ADP or AMPPNP.
The membranes are resuspended in 20 mM HEPES (pH 7.4), 1 mM dithiothreitol, 1 mM EDTA and 10 µg leupeptin/ml. Aliquots are stored at -70°C until assayed.

## NC(=O)c1ccc[n+]([C@@H]2O[C@H](COP(=O)([O-])OP(=O)(O)OC[C@H]3O[C@@H](n4cnc5c(N)ncnc54)[C@H](O)[C@@H]3O)[C@@H](O)[C@H]2O)c1 [NAD]
  stimulation of LPS-enhanced GTPase activity: did not synergistically increase

## Nc1ncnc2c1ncn2[C@@H]1O[C@H](CO)[C@@H](O)[C@H]1O [adenosine]
  stimulation of LPS-enhanced GTPase activity: ineffective; also recorded: did not synergistically increase

## Nc1ncnc2c1ncn2[C@@H]1O[C@H](COP(=O)(O)OP(=O)(O)CP(=O)(O)O)[C@@H](O)[C@H]1O [β,γ methylene ATP]
  relative abilities of purines to stimulate LPS-enhanced GTPase: ATP> ATPγS> ADP> AMPPNP>> β,γ methylene ATP> 2-MeSATP

## [Na+].[Na+].[Na+].[O]=[V]([O-])([O-])[O-] [sodium orthovanadate]
  inhibition of LPS-stimulated GTPase activity: did block LPS activation

## O=c1ccn([C@@H]2O[C@H](COP(=O)(O)OP(=O)(O)OP(=O)(O)O)[C@@H](O)[C@H]2O)c(=O)[nH]1 [UTP]
  stimulation of LPS-enhanced GTPase activity: did not synergistically increase

## C[C@@H]1O[C@@H](O[C@H]2C[C@@H](O)[C@]3(CO)[C@H]4[C@H](O)C[C@]5(C)[C@@H](C6=CC(=O)OC6)CC[C@]5(O)[C@@H]4CC[C@]3(O)C2)[C@H](O)[C@H](O)[C@H]1O [ouabain]
  inhibition of LPS-stimulated GTPase activity: not antagonized
  sensitivity of LPS-stimulated GTPase activity to inhibitor: insensitivity
In the presence of ADP
  inhibition of LPS-stimulated GTPase activity: did not block

## CCN1C(=O)C=CC1=O [N-ethyl-maleimide]
  inhibition of LPS-stimulated GTPase activity: not antagonized
In the presence of ADP
  inhibition of LPS-stimulated GTPase activity: did not block

## O=[N+]([O-])c1ccc(OP(=O)(O)O)cc1 [p-nitrophenyl-phosphate]
  inhibition of LPS-stimulated GTPase activity: not antagonized
  sensitivity of LPS-stimulated GTPase activity to inhibitor: insensitivity

## CO/C1=C\C(C)=C\[C@@H](C)[C@@H](O)[C@@H](C)C/C(C)=C/C=C/[C@H](OC)[C@@H]([C@@H](C)[C@@H](O)[C@H](C)[C@@]2(O)C[C@@H](O)[C@H](C)[C@@H](C(C)C)O2)OC1=O [bafilomycin]
  inhibition of LPS-stimulated GTPase activity: not antagonized
In the presence of ADP
  inhibition of LPS-stimulated GTPase activity: did not block

## Nc1ncnc2c1ncn2[C@@H]1O[C@H](COP(=O)(O)O)[C@@H](O)[C@H]1O [AMP]
  stimulation of LPS-enhanced GTPase activity: ineffective; also recorded: did not synergistically increase

## Nc1ncnc2c1ncn2[C@@H]1O[C@H](COP(=O)(O)OP(=O)(O)OP(O)(O)=S)[C@@H](O)[C@H]1O [ATPγS]
  relative abilities of purines to stimulate LPS-enhanced GTPase: ATP> ATPγS> ADP> AMPPNP>> β,γ methylene ATP> 2-MeSATP

## Cn1c(=O)c2[nH]cnc2n(C)c1=O [theophylline]
  stimulation of LPS-enhanced GTPase activity: did not synergistically increase

Source: EP0559845B1, “Use of compounds in preventing endotoxin shock” (priority 1991, dated 1992)
